Measured values reported in US4957926A, “Method of treating herpesviruses” (priority 1988, dated 1990).
Like-named read-outs stand apart in the source and are kept apart here. Each block holds one compound with its values, some of them ahead of it.

Tests used:
[1] = system: Herpes Simplex Type II (Viral Strain HG52); experiment: Herpes Simplex Type II Plaque Reduction Assay; assay type: cell-based; details: for EC50: HSV type II; for Plaque Count: replicate counts
From the text: (§1) For testing the N-Bu-DNJ against HSV, the HSV Type II strain HG52 described by Timbury, J. Gen. Virol. 13, 373-376 (1971), and Davis et al., Analyst 110, 605-609 (1985), is useful. For testing against CMV, the prototype CMV ADl69 strain described, for example, by Tyms et al., J. Gen. Virol. 68, 1563-1573 (1987), and in U.S. Pat. No. 4,743,560, is useful. Another useful CMV strain is the Towne strain described by Glazer et al., Ann. Inter. Med. 91, 676-683 (1979).
(§2) Human embryo fibroblast cells (HEF) were grown in Eagles minimal essential medium supplemented with 7% fetal calf serum (FCS), 9 mM sodium bicarbonate and 7 mM HEPES buffer. In maintenance medium the supplements were adjusted to 2% FCS, 13 mM sodium bicarbonate and 14 mM HEPES. CMV, strain Towne, and HSV type II, strain […], were used in the following tests. CMV virus stocks were prepared and stored by technique as previously described by Tyms & Williamson, Nature 297, 690-691 […]. Herpes virus stocks were prepared and stored by technique as previously described by Davis et al., Analyst 110, 605-609 (1985). The HEF were human embryonic lung fibroblasts, strain MRC-5, as described by Tyms and Williamson, Nature 297, 690-691 (1982).
(§3) For plaque reduction assays, 24-well culture trays were seeded with HEF cells. Confluent monolayers were infected with virus to give initially about 100 plaque-forming-units (p.f.u.) per well. After a one hour absorption period the inocula were replaced by l.5ml of a maintenance medium incorporating 0.5% low gelling temperature agarose, supplemented with various concentrations of test compound. For tests with CMV, infected monolayers were fixed with 5% formalin in phosphate buffered saline (PBS) at 6-8 days post-infection and stained with 0.3% methylene blue after removal of the overlay; whereas, tests with HSV were conducted in the same manner but with the monolayer fixing at 2 days post infection. The mean plaque number was calculated from a multiple series of counts (e.g., duplicate, triplicate or quadruplicate), converted to a percentage of untreated controls and values plotted against the log10 drug concentration. The 50% effective dose (ED50) was determined from best line fits for the curves.
The mean plaque numbers determined on HEF cells exposed to varying amount of N-Bu-DNJ, N-Me-DNJ, N-He-DNJ, 2-deoxy-D-glucose and castanospermine were converted to percentage values (plaque count in presence of drug divided by mean value of untreated controls×100), and plotted as a function of drug concentration [drug (mM)].
The 50% effective dose (ED50)--that amount of drug needed to reduce plaque count by 50%--was calculated to give the following values: […]

HEF cells (strain MRC-5) [2] = experiment: HEF cell growth / monolayer appearance in HSV type II plaque reduction assay; assay type: cell-based, human
Description: as §3

[3] = system: Cytomegalovirus (Viral Strain Towne); experiment: Yield Reduction Assay against infections with CMV (Towne strain); assay type: cell-based; details: for activity at 500 µM / activity at 2000 µM: read-out: % Virus Control
Description: Antiviral activities of N-Bu-DNJ and comparative test compounds against infections with CMV (Towne strain) were also measured by the yield reduction assay as follows:
HEF cells (MRC-5) were infected at high multiplicity of infection (about one p.f.u. per cell) and incubated with various concentrations of the test compounds for 5 and 6 days post infection. The level of infectious virus shed into the extracellular fluid was determined at 5 and 6 days by plaque assays as described above, using serial dilution of extracellular fluid to bring readings on scale.
In Table VI, to calculate plaque-forming units (PFU) of the maintenance medium overlayering HEF cells, the plaque count at the most sensitive dilution (from Table V) was multiplied by dilution value and then by 5 (0.2 ml sample volumes used in test) to give PFU (per ml maintenance medium). (e.g. calculation of drug control: 31×10^3 ×5=1.6×10^5 PFU).

[4] = system: Cytomegalovirus (Viral Strain Towne); experiment: Cytomegalovirus Plaque Reduction Assay; assay type: cell-based; details: for Plaque Count: replicate counts
From the text: as §1, §2, §3
In a similar manner, the Effective Dosage Values (ED50) were determined from the curves of FIG. 1. A least squares fit of the data of FIG. 1 to an equation of the form: y=mx+b gave the following values: […]
From these values, a 50% effective dose (ED50) was calculated to give the following values: […]

HIV = details: Tyms et al., Lancet, 1987; cited from earlier work
HEF cells (strain MRC-5) [5] = assay type: cell-based, human
Description: Triplicate titer plates were seeded with human embryo fibroblast (HEF) cells (about 7.5×10^3 cells/well), and after 4 days of growth in the absence of presence of 2-deoxy-D-glucose and N-Bu-DNJ were counted and compared to a control without test compound.

[6] = Human betaherpesvirus 5, MRC5, 120 h
[7] = Human betaherpesvirus 5, MRC5, 144 h

- EC50 ([1]; HEF, tested up to 1.1 mM, read-out: estimated ED50): ~250 µM
SMILES: CCCCCCN1C[C@H](O)[C@@H](O)[C@H](O)[C@H]1CO [N-He-DNJ, Nhexyl deoxynojirimycin]
- activity at 560 µM ([1]; HEF, Table III, 0.56 mM, read-out: % Virus Control): 31.4%
- activity at 1120 µM ([1]; HEF, Table III, 1.12 mM, read-out: % Virus Control): 15.7%
- Plaque Count Avg ([1]; Table III, 0.56 mM): 16
- Plaque Count Avg ([1]; Table III, 1.12 mM): 8
- Plaque Count ([1]; Table III, 2.25 mM): trace
- Plaque Count ([1]; Table III, 4.5 mM): none
- size of plaques compared to control test (in words) ([1]; Table III, 2.25 and 4.5 mM): significantly reduced
- antiviral activity against HSV type II (in words) ([1]; up to 1.1 mM): substantial antiviral activity
- HEF cell growth (in words) (HEF cells (strain MRC-5) [2]; 0.56 and 1.12 mM): grew normally
- appearance of HEF cell monolayers (in words) (HEF cells (strain MRC-5) [2]; 2.25 and 4.5 mM): looked thin
- cell growth (in words) (HEF cells (strain MRC-5) [2]; higher concentrations (above 1.1 mM)): cell growth also was retarded

- EC50 ([1]; HEF, amount of drug needed to reduce plaque count by 50%, read-out: 50% effective dose (ED50)): 2800 µM
SMILES: CN1C[C@H](O)[C@@H](O)[C@H](O)[C@H]1CO [N-Me-DNJ, Nmethyl deoxynojirimycin]
- antiviral activity against HSV type II (in words) [1]: substantially reduce herpesvirus type II infection of HEF cells
- activity at 280 µM ([1]; HEF, Table I, 0.28 mM, read-out: % Virus Control): ≥ 100%
- activity at 560 µM ([1]; HEF, Table I, 0.56 mM, read-out: % Virus Control): 99%
- activity at 1120 µM ([1]; HEF, Table I, 1.12 mM, read-out: % Virus Control): 88%
- activity at 2240 µM ([1]; HEF, Table I, 2.24 mM, read-out: % Virus Control): 50%
- activity at 4480 µM ([1]; HEF, Table I, 4.48 mM, read-out: % Virus Control): 18%
- Plaque Count Avg ([1]; Table I, 0.28 mM): 84
- Plaque Count ([1]; Table I, 0.28 mM): 72,95
- Plaque Count Avg ([1]; Table I, 0.56 mM): 77
- Plaque Count ([1]; Table I, 0.56 mM): 79,74
- Plaque Count Avg ([1]; Table I, 1.12 mM): 69
- Plaque Count ([1]; Table I, 1.12 mM): 63,74
- Plaque Count Avg ([1]; Table I, 2.24 mM): 39
- Plaque Count ([1]; Table I, 2.24 mM): 48,29
- Plaque Count Avg ([1]; Table I, 4.48 mM): 14
- Plaque Count ([1]; Table I, 4.48 mM): 9,19

SMILES: O[C@H]1[C@H](O)[C@@H](O)CN2CC[C@H](O)[C@H]12 [Castanospermine, castanospermine, reference compound]
- PFU ([3]; 0.5 mM, 5 days HEF growth): 2.1 × 10^4 PFU (per ml maintenance medium
- PFU ([3]; 0.5 mM, 6 days HEF growth): 2.3 × 10^4 PFU (per ml maintenance medium
- PFU ([3]; 2.0 mM, 5 days HEF growth): 2.3 × 10^3 PFU (per ml maintenance medium
- PFU ([3]; 2.0 mM, 6 days HEF growth): 1.8 × 10^3 PFU (per ml maintenance medium
- activity at 500 µM [3, 6]: 13%
- activity at 2000 µM [3, 6]: 1.4%
- activity at 500 µM [3, 7]: 6.2%
- activity at 2000 µM [3, 7]: 0.48%
- activity at 250 µM ([1]; HEF, Table II, 0.25 mM, read-out: % Virus control): 56%
- activity at 500 µM ([1]; HEF, Table II, 0.5 mM, read-out: % Virus control): 53%
- activity at 1000 µM ([1]; HEF, Table II, 1.0 mM, read-out: % Virus control): 42%
- activity at 2000 µM ([1]; HEF, Table II, 2.0 mM, read-out: % Virus control): 50%
- activity at 4000 µM ([1]; HEF, Table II, 4.0 mM, read-out: % Virus control): 36%
- Plaque Count Avg ([1]; Table II, 0.25 mM): 50
- Plaque Count ([1]; Table II, 0.25 mM): 46,54
- Plaque Count Avg ([1]; Table II, 0.5 mM): 48
- Plaque Count ([1]; Table II, 0.5 mM): 52,44
- Plaque Count Avg ([1]; Table II, 1.0 mM): 38
- Plaque Count ([1]; Table II, 1.0 mM): 21,55
- Plaque Count Avg ([1]; Table II, 2.0 mM): 45
- Plaque Count ([1]; Table II, 2.0 mM): 61,28
- Plaque Count Avg ([1]; Table II, 4.0 mM): 32
- Plaque Count ([1]; Table II, 4.0 mM): 33,32
- EC50 ([4]; Human betaherpesvirus 5, HEF, CMV, calculated from least squares fit of FIG. 1, read-out: 50% effective dose (ED50)): 600 µM
- activity at 250 µM ([4]; Human betaherpesvirus 5, HEF, Table IV, 0.25 mM, read-out: % Virus control): 81%
- activity at 500 µM ([4]; Human betaherpesvirus 5, HEF, Table IV, 0.50 mM, read-out: % Virus control): 55%
- activity at 1000 µM ([4]; Human betaherpesvirus 5, HEF, Table IV, 1.0 mM, read-out: % Virus control): 30%
- activity at 2000 µM ([4]; Human betaherpesvirus 5, HEF, Table IV, 2.0 mM, read-out: % Virus control): 12%
- Plaque Count Avg ([4]; Table IV, 0.25 mM): 166
- Plaque Count ([4]; Table IV, 0.25 mM): 146,191,184,144
- Plaque Count Avg ([4]; Table IV, 0.50 mM): 113
- Plaque Count ([4]; Table IV, 0.50 mM): 108,112,122,111
- Plaque Count Avg ([4]; Table IV, 1.0 mM): 61
- Plaque Count Avg ([4]; Table IV, 2.0 mM): 25
- block of HIV growth (in words) (HIV): found to block the growth of the AIDS-associated virus HIV

SMILES: OC[C@H]1NC[C@H](O)[C@@H](O)[C@@H]1O [DNJ, 1,5-dideoxy-l,5-imino-Dglucitol]
- block of HIV growth (in words) (HIV): found to block the growth of the AIDS-associated virus HIV

- inhibitory effect on growth of normal cells (in words) (HEF cells (strain MRC-5) [5]): substantially inhibits the growth
SMILES: O=CC[C@@H](O)[C@H](O)[C@H](O)CO [2-Deoxy-D-glucose, 2-deoxy-D-glucose, reference compound]
- inhibitory effect on herpesvirus type II (in words) ([1]; 2.5 mM): no inhibitory effect was observed
- activity at 2500 µM ([1]; HEF, Table II, 2.5 mM, read-out: % Virus control): ≥ 100%
- activity at 5000 µM ([1]; HEF, Table II, 5.0 mM, read-out: % Virus control): 77%
- Plaque Count Avg ([1]; Table II, 2.5 mM): 91
- Plaque Count ([1]; Table II, 2.5 mM): 94,88
- Plaque Count Avg ([1]; Table II, 5.0 mM): 69
- Plaque Count ([1]; Table II, 5.0 mM): 61,76
